Test results taken from publication PMC2719696, “Kinetics and Cellular Site of Glycolipid Loading Control the Outcome of Natural Killer T Cell Activation” (Immunity, 2009).
Each block holds one molecule with its values, some of them ahead of it.

Columns and labels:
hCD1d = target: T1, hCD1d (Homo sapiens, UniProt P15813); assay: Loading of hCD1d tetramers with or without 0.05% Triton X-100, staining of hybridoma DN3A4.1-2; assay type: binding
T1 construct: made in house
From the text: (§1) The efficient loading of CD1 molecules with lipids such as αGalCer-C26:0 is known to involve cofactors that enhance the transfer of lipids from micelles or membranes into the antigen-binding groove of the CD1 protein. The best known of these cofactors are resident intracellular lipid binding and transfer proteins including those belonging to the saposin family, GM2 activator proteins, and Niemann-Pick type C1 and C2 proteins ([Zhou et al., 2004; Sagiv et al., 2006; Yuan et al., 2007; Schrantz et al., 2007]). Most of these are known to have detergent-like activities that facilitate solubilization of lipids and their exchange between hydrophobic binding sites. […]
(§2) Figure 5 Lack of Detergent-like Cofactor Dependence of Th2 Cell-Type Cytokine-Biasing αGalCer Analogs (A) Glycolipids were incubated for 24 hr at 37°C with murine CD1d proteins in the absence (top row) or presence (bottom row) of 0.05% Triton X-100. […] After washing, DN32.D3 iNKT hybridoma cells were added and supernatant concentrations of IL-2 were determined after an additional 14 hr of incubation. […]
(§3) Recombinant CD1d proteins were produced and assembled into tetramers for staining as previously described ([Forestier et al., 2007]). […] All samples were analyzed with the FACSCalibur flow cytometer (BD Biosciences).

human iNKT cells = assay: In vitro expansion of human iNKT cells from PBMC (FACS with 6B11 and anti-CD3); assay type: cell-based; details: 100 nM glycolipid, IL-2 and IL-7, day 7
Procedure: Figure S3. Responses of human iNKT cells to Th2 cell-type cytokine biasing […]
(A) For in vitro expansion of iNKT cells, 2 million human PBMC per well in 96 well plates were stimulated with 100 nM of glycolipids in the presence of IL-2 (60 IU/ml) and IL-7 (5 ng/ml). At day 7, cultures were harvested and analyzed by FACS using 6B11 (specific for the TCRα chain of iNKT cells) and anti-CD3 mAbs. Significant expansion of human […]
all glycolipids with the exception of OCH. Similar results were obtained in three independent experiments from 6 different donors.
(B) Cytokine production by a CD4+ human iNKT clone (HDD11) stimulated with human monocyte-derived dendritic cells pulsed with αGalCer analogues. For in vitro activation of human iNKT cells, 5 x 10^4 cloned iNKT cells per well were stimulated with 2.5 x104 […]

mCD1d [1] = target: T2, mCD1d (Mus musculus, UniProt P11609); assay: In vitro CD1d loading assay with immobilized mCD1d, saposins or Triton X-100, DN32.D3 hybridoma IL-2 readout; assay type: biochemical; details: for effect of all four saposins on mCD1d loading: saposins 10 μg/ml
T2 sequence (P11609 22-305 limits assumed): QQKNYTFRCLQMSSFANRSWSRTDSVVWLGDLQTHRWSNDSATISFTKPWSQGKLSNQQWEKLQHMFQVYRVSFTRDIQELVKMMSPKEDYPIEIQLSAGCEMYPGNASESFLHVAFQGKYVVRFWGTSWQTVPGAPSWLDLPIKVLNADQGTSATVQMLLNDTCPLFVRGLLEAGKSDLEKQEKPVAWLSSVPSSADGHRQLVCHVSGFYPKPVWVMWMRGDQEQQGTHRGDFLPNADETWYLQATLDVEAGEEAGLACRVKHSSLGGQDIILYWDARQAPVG
T2 sequence (P01887 21-119 partner): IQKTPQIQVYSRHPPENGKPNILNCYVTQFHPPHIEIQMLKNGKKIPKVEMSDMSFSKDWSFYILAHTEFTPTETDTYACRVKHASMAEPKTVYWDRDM
Procedure: Figure 5 Lack of Detergent-like Cofactor Dependence of Th2 Cell-Type Cytokine-Biasing αGalCer Analogs (A) Glycolipids were incubated for 24 hr at 37°C with murine CD1d proteins in the absence (top row) or presence (bottom row) of 0.05% Triton X-100. The resulting complexes were assembled as tetramers and used for staining mouse iNKT hybridoma DN3A4.1-2. The dashed line histograms show background staining with unloaded tetramers, and the bold histograms show staining with glycolipid loaded tetramers. (B) The same analysis as in (A) except with human CD1d tetramers, which were also used for DN3A4.1-2 staining. (C) Glycolipids at various concentrations were incubated with immobilized mCD1d protein for 2 hr in pH 7.0 or pH 5.0 buffers with no additives (medium) or in the same buffers containing the indicated purified recombinant saposins (10 μg/ml) or Triton X-100 (0.05%). After washing, DN32.D3 iNKT hybridoma cells were added and supernatant concentrations of IL-2 were determined after an additional 14 hr of incubation. All results shown (A, B, and C) were representative of at least two independent experiments.
To extend these observations to a more physiological model, we tested the effects of purified recombinant saposin A, B, C, and D proteins on loading of αGalCer analogs.
Recombinant murine CD1d proteins at 4 μg/ml in 50 μl PBS were coated on the surfaces of microtiter plate wells for 2 hr at 37°C and then washed with PBS for removal of unbound proteins. Subsequently, various concentrations of glycolipids in 0.1 M sodium phosphate buffer (pH 7.0) or 0.1 M sodium citrate buffer (pH 5.0) containing 150 mM NaCl were incubated with or without 0.05% Triton X-100 or recombinant purified human saposins A, B, C, or D at 10 μg/ml for another 2 hr at 37°C. Saposins were produced and purified as described ([Yuan et al., 2007]). After extensive washing with PBS and media, 5 × 10^4 murine iNKT hybridoma DN32.D3 cells were added in 200 μl of complete medium and incubated at 37°C for 14 hr. Supernatants were analyzed for murine IL-2 by capture ELISA.

mCD1d [2] = target: T2, mCD1d; assay: Loading of mCD1d tetramers with or without 0.05% Triton X-100, staining of hybridoma DN3A4.1-2; assay type: binding; details: 0.05% Triton X-100, 24 hr at 37°C
From the text: as §1, §2, §3

SMILES: CCCCCCCCCCCCCCCCCCCCCCCC(=O)NC(COC1OC(CO)C(O)C(O)C1O)C(O)C(O)CCCCC (stereo not shown) [OCH]
formation of hCD1d tetramers with iNKT cell-binding avidity (hCD1d): failed to form hCD1d tetramers with iNKT cell-binding avidity under any conditions
expansion of human iNKT cells (percentage of total viable lymphocytes) (human iNKT cells): exception

SMILES: CCCCCCCCCCCCCCC(O)C(O)C(COC1OC(CO)C(O)C(O)C1O)NC(=O)CCCCCCCCC (stereo not shown) [αGalCer-C10:0]
effect of all four saposins on mCD1d loading (mCD1d [1]; acidic pH): reduced mCD1d loading
effect of all four saposins on mCD1d loading (mCD1d [1]; neutral pH): only modest enhancement

effect of Triton X-100 on formation of mCD1d tetramers that bind iNKT cell TCRs (mCD1d [2]): clear enhancing effect
SMILES: CCCCCCCCCCCCCCCCCCCCCCCC(=O)NC(COC1OC(CO)C(O)C(O)C1O)C(O)C(O)CCCCCCCCCCCCCC (stereo not shown) [αGalCer-C24:0]

SMILES: CCCCCCCCCCCCCCCCCCCCCCCCCC(=O)NC(COC1OC(CO)C(O)C(O)C1O)C(O)C(O)CCCCCCCCCCCCCC (stereo not shown) [αGalCer-C26:0, reference compound]
cofactor dependence of mCD1d loading (mCD1d [1]; recombinant mCD1d, iNKT hybridoma IL-2 readout): dependent either on the presence of detergent (0.1% Triton X-100) or on the presence of a purified saposin
effect of Triton X-100 on formation of mCD1d tetramers that bind iNKT cell TCRs (mCD1d [2]): clear enhancing effect
